Values of other authors as cited in US20090092668A1, “ACETAMINOPHEN FORMULATION FOR JOINT PAIN RELIEF” (priority 2006, published 2009).

Experiments:
[1] = one subject

CS(C)(=O)=O [MSM, Methylsulfonylmethane]
pain status ([1]; ¼-½ tsp. daily for about 16 months): substantially pain-free life | pain relief ([1]; ½ tsp. daily in diet, by the end of the second week): almost total pain relief

N[C@H]1C(O)O[C@H](CO)[C@@H](O)[C@@H]1O (stereo partly drawn) [glucosamine]
excreted as exhaled carbon dioxide (of the absorbed glucosamine): 65% | excreted in the urine (of the absorbed glucosamine): 25% | remaining in the tissues (of the absorbed glucosamine): 10% | absorbed from the small intestine (sulfate form): over 90%
